Laboratory results reported in ChEMBL document CHEMBL1139057, “Rotenoids and flavonoids with anti-invasion of HT1080, anti-proliferation of U937, and differentiation-inducing activity in HL-60 from Erycibe expansa” (Bioorg Med Chem, 2007).

Key:
Format in all cases: functional, cell-based
U-937 [1] = test: Antiproliferative activity against human U937 cells after 24 hrs by WST-8 assay; conditions: U-937, 24 h
U-937 [2] = test: Antiproliferative activity against human U937 cells after 72 hrs by WST-8 assay; conditions: U-937, 72 h
U-937 [3] = test: Antiproliferative activity against human U937 cells after 48 hrs by WST-8 assay; conditions: U-937, 48 h

IC50 (U-937 [1])	IC50 (U-937 [2])	IC50 (U-937 [3])	Compound
> 100 µM	> 100 µM	> 100 µM	O=C1C=C2OC[C@H]3c4cc5c(cc4O[C@H]3[C@@]2(O)CC1)OCO5
29 µM	18 µM	21 µM	COc1ccc([C@@H]2CCc3c(OC)cc(OC)cc3O2)cc1
> 100 µM	> 100 µM	> 100 µM	COc1ccc2c(=O)c(-c3ccc(OC)c(OC)c3)coc2c1
> 100 µM	> 100 µM	> 100 µM	COc1ccc2c(c1)O[C@@H]1[C@H]2COC2=CC(=O)CC[C@@]21O
39 µM	10 µM	40 µM	COc1cc(OC)c2c(c1)O[C@H](c1ccc(O)cc1)CC2
> 100 µM	48 µM	72 µM	COc1cc(O)c(-c2coc3cc(O)ccc3c2=O)cc1OC
68 µM	74 µM	85 µM	COc1cc(-c2coc3cc(O)cc(O)c3c2=O)ccc1O [3'-O-METHYLOROBOL]
35 µM	28 µM	32 µM	CC1(C)C=Cc2c(cc3occ(-c4ccc(O)cc4)c(=O)c3c2O)O1 [ALPINUMISOFLAVONE]
49 µM	43 µM	48 µM	COc1ccc(-c2coc3cc(O)ccc3c2=O)cc1O [CALYCOSIN]
26 µM	13 µM	20 µM	CC1(C)C=Cc2c(cc(O)c3c(=O)c(-c4ccc(O)cc4)coc23)O1 [DERRONE]
> 100 µM	> 100 µM	> 100 µM	O=C1C[C@@H](c2ccc(O)c(O)c2)Oc2cc(O)cc(O)c21 [ERIODICTYOL]
37 µM	2.9 µM	4.3 µM	COc1ccc([C@@H]2CCc3c(OC)cc(OC)cc3O2)c(O)c1 [ERYCEBENIN E]
46 µM	21 µM	25 µM	CC(C)(O)[C@@H](O)Cc1c(O)cc2occ(-c3ccc(O)cc3)c(=O)c2c1O [ERYCIBENIN A]
> 100 µM	> 100 µM	> 100 µM	CC(C)(O)[C@@H](O)Cc1c(O)cc(O)c2c(=O)c(-c3ccc(O)cc3)coc12 [ERYCIBENIN B]

Compound	IC50 (U-937 [1])	IC50 (U-937 [2])	IC50 (U-937 [3])
CC[C@@]1(O)C(=O)OCc2c1cc1n(c2=O)Cc2cc3ccccc3nc2-1 [CAMPTOTHECIN]	0.68 µM	0.015 µM	0.032 µM
